The values that follow come from patent publication US20130310440A1, “METHOD FOR TREATING NON-SMALL CELL LUNG CANCER” (TEVA PHARMACEUTICAL INDUSTRIES LTD., priority 2012, published 2013).

Read-outs that look alike come from different tables or passages of the source. In the oligonucleotide strings, read from the 5' end, every base follows the letter of its sugar. An asterisk marks phosphorothioate; unmarked linkages are phosphodiester. Other units and linkages are bracketed, terminal groups are in braces. A string of capitals states the bases alone. e = 2'-O-(2-methoxyethyl) (MOE); [5mC] = 5-methylcytosine; d = 2'-deoxy (DNA)

The conditions of series [1]: human, in vivo; cited from earlier work.
For series [2], the system named is Stage IV Non-Squamous Non-Small Cell Lung Cancer. Description: Phase III study: paclitaxel/carboplatin with or without custirsen (Examples 1 and 2). In kind it is in vivo, human. The source says: Subjects randomized to the custirsen arm first receive three doses of custirsen in a 5 to 9 day loading dose period prior to Day 1 of Cycle 1. Subjects randomized to both study arms have 21-day chemotherapy cycles until disease progression, unacceptable toxicity, or completion of 6 cycles; however, subjects randomized to the custirsen arm also receive weekly doses of custirsen starting at Day 1 of each of the 21-day chemotherapy cycles until disease progression, unacceptable toxicity, or completion of all 6 cycles.
This is a randomized, open-label, sponsor-blinded multinational trial. Treatment consists of paclitaxel/carboplatin/custirsen vs. paclitaxel/carboplatin, which compose the two arms of the study.
After a screening period of up to 28 days, subjects are randomly assigned with equal probability to the two arms. Stratified randomization is used in order to minimize between-arm imbalance over four stratification factors: Gender, Eastern Cooperative Oncology Group (ECOG) performance status (0 vs. 1), Smoking status (former/current smoker vs. never-smoker) and Geographical Region (North America, Europe and Southeast Asia).
Subjects randomized to the custirsen arm have a 5 to 9 day loading dose period prior to Day 1 of Cycle 1. […] Subjects who are removed from study treatment for any reason other than disease progression or death are followed for documented disease progression. Once disease progression is documented, subjects enter a survival follow-up phase during which data is collected regarding further cancer treatment and their survival status.
Tumor response to study treatment and disease progression is based on the criteria proposed by the Response Evaluation Criteria in Solid Tumors (RECIST) 1.1 guidelines. All subjects undergo CT or MRI scans of the chest and upper abdomen, as well as any other areas clinically indicated, at screening, then every 6 weeks, starting at week 8 for the first 26 weeks (week 8, 14, 20 and 26) and then every 12 weeks after the week 26 scan until disease progression. These time points are kept within a window of +one week, regardless of the treatment schedule. The week 26 scan is performed as scheduled, regardless of whether the patient is still in the treatment period (i.e. due to treatment delays) or has already completed the end of treatment visit. Once a patient is discontinued from study treatment for documented disease progression, scanning is no longer required. Assessment of these scans is carried out in a blinded fashion, by a Central Imaging Lab.
Adverse events are recorded at each visit during the study and 28 days after the last dose of study treatment. Medical history is assessed at screening and an electrocardiogram is performed. Physical examination, assessment of the ECOG performance status, vital signs and laboratory evaluations are conducted at screening and throughout the study. Adverse events are recorded from when a subject is signed the Informed Consent Form and throughout the study, until the end of the treatment visit (28 days following last dose). They are reviewed and updated at each subsequent visit and during any phone contact with the subject.
The general health status, as reported by the subjects is assessed by the EuroQoL (EQ-5D) and FACT-L questionnaires. Medical resource utilization is also compared between the treatment arms. The EQ-5D is a standardized instrument for use as a measure of health outcome. Applicable to a wide range of health conditions and treatments, it provides a simple descriptive profile and a single index value for health status that can be used in the clinical and economic evaluation of health care as well as population health surveys. EQ-5D is designed for self-completion by subjects. In this study the instrument is self-administrated.
640 mg in 250 mL normal saline IV over 2 hours.
Carboplatin AUC 6.0 mg/ml/min IV over 30 minutes.
The primary outcome measure is overall survival (OS). […]

The test system of the next series is stage IIIB or IV NSCLC. Put plainly: Phase 1-2 study of weekly custirsen plus a gemcitabine/platinum-based regimen: survival by serum clusterin. As to conditions: for median survival time: plus gemcitabine/platinum. In kind it is in vivo, human. The method, then: The relationship between serum clusterin levels and the duration of individual survival was evaluated during a phase 1-2 study of weekly custirsen plus a gemcitabine/platinum-based regimen in patients with stage IIIB or IV NSCLC. Not all of the patients in this study had baseline levels of clusterin measured. However, starting with N=69 subjects with measured baseline clusterin levels, fitting the Cox proportional hazards (PH) model with baseline clusterin as sole predictor gives p=0.10; the coefficient is positive, so that higher clusterin is associated with increased survival risk. Among the N=55 subjects who also had post-baseline data collected, fitting the same PH model gives p=0.05, again with positive coefficient.
A careful search for possible cutpoints, using all N=69 subjects with baseline clusterin levels, produced 71 μg/mL as a strong candidate.
Among all N=69 subjects with a baseline clusterin level, there were […] with clusterin ≦71 μg/mL (median survival time was 18.8 months), and N=26 subjects with baseline clusterin >71 μg/mL (median survival time was 10.2 months); the log-rank p-value=0.004. Removing the N=14 early discontinuers leaves N=35 subjects with baseline clusterin ≦71 μg/mL (median survival time was 28.7 months), and N=20 subjects with baseline clusterin >71 μg/mL (median survival time was 12.2 months); the log-rank p-value=0.0002.
To further assess the relevance of baseline clusterin as a predictor of survival, data from the study were further segregated based on average and minimum clusterin levels achieved during treatment.

Series [3] has as its system Advanced or Metastatic (Stage IV) Non Small Cell Lung Cancer. Put plainly: Phase III study: custirsen plus docetaxel versus docetaxel, second line (Example 3). In kind it is in vivo, human. The source says: A Multinational, Randomized, Open-Label Phase III Study of Custirsen (TV-1011/OGX-011) In Combination With Docetaxel Versus Docetaxel As A Second-Line Treatment In Patients with Advanced or Metastatic (Stage IV) Non Small Cell Lung Cancer.
Patients randomized to the custirsen arm (Arm A) have 3 doses of custirsen administered in a 5 to 9 day Loading Dose Period prior to Day 1 of Cycle 1. Patients in Arm A receive custirsen on Days 1, 8 and 15, and docetaxel on Day 1 of the 21-day cycles. Patients in Arm B receive only docetaxel on Day 1 of the 21-day cycles. Patients randomized to both arms have 21-day chemotherapy cycles until disease progression, unacceptable toxicity, withdrawal of consent or protocol specified parameters to stop treatment.
After a screening period of up to 28 days, patients are randomized 1:1 to receive either docetaxel and custirsen (Arm A) or docetaxel (Arm B). Randomization is stratified by gender (male vs. female), NSCLC histology (squamous vs. non-squamous), best overall response to the first-line platinum-based therapy (SD/CR/PR vs. PD) and ECOG PS (0 vs. 1) to minimize imbalance at randomization. Patients randomized to Arm A receive 3 doses of custirsen administered in a 5 to 9 day Loading Dose Period prior to Day 1 of Cycle 1. Following the Loading Dose period, patients in Arm A receive custirsen on Days 1, 8 and 15, and docetaxel on Day 1 of the 21-day cycle. Patients in Arm B receive only docetaxel on Day 1 of the 21-day cycle. Patients randomized to both study arms have 21-day chemotherapy cycles until disease progression, unacceptable toxicity, withdrawal from study treatment, or protocol specified parameters to stop treatment. Patients who are removed from study treatment for any reason other than disease progression or death are followed for documented radiological disease progression. All patients who discontinued study treatment are followed to collect further anticancer treatment and survival information until death, loss to follow-up, withdrawal of consent, or up to 12 months after the end of treatment visit for the last patient on the study, whichever comes first.
Tumor response to study treatment and disease progression are based on the criteria proposed by the Response Evaluation Criteria in Solid Tumors (RECIST) guideline (version 1.1). All patients undergo CT or MRI scans of the chest and upper abdomen, as well as any other areas clinically indicated, at screening, then every 6 weeks, starting at week 8 after randomization until disease progression. Tumor measurement is also performed during the end of treatment visit if it is not done within the previous 6 weeks. Patients who discontinue study treatment for reasons other than disease progression continue to have tumor measurements per RECIST v1.1 until disease progression, start of new anticancer therapy, withdrawal of consent, lost to follow-up, or death, whichever occurs first. Assessment of these scans is carried out in a blinded fashion, by a Central Imaging Lab designated by the Sponsor.
Adverse events and concomitant medications are collected throughout the study up to 28 days after the last dose of study treatment. Medical history is assessed, documented results of EGFR and KRAS mutation status are collected, if available, and an electrocardiogram is performed at screening. Physical examination, assessment of the ECOG Performance Status, vital signs, and laboratory evaluations are conducted at screening and throughout the study.
The general health status, as reported by the patients, are assessed by the Functional Assessment of Cancer Therapy-Lung (FACT-L) questionnaire.
Study Agent: Three loading doses of custirsen 640 mg IV over 2 hours administered in 5 to 9 days prior to Day 1 of Cycle 1, then custirsen 640 mg IV over 2 hours on Days 1, 8 and 15 of a 21-day cycle.
Chemotherapy: Docetaxel 75 mg/m^2 IV over 1 hour on Day 1 of a 21-day cycle. […]

The conditions of series [4]: in vivo.
Description: Three doses of 640 mg custirsen are administered IV during the Loading Dose Period (Days −9 to −1). There is at least one “non-infusion” day between each administration of custirsen (i.e. every other day) during the Loading Dose Period and between the third loading dose of custirsen and Day 1 of Cycle 1. The day prior to Day 1 of Cycle 1 (Day 0) is a “no treatment” day. There are no more than 4 days between the last loading dose and Day 1 of Cycle 1. A common schedule is to give the three loading doses of custirsen on Monday, Wednesday and Friday with Day 1, Cycle 1 starting on the following Monday. Up to nine days are allowed for completing the three loading doses prior to Day 0 to account for clinic visits, weekends, and holidays. Subjects receive each dose of custirsen as a 2 hour infusion.
For the next series, the system named is clusterin. The following applies: cited from earlier work.
Series [5] has as its system cancerous human prostate, breast, ovarian, lung, renal, bladder, and melanoma cells. As to conditions: cited from earlier work.
The subject of another series is NSCLC. As to conditions: patients treated with docetaxel in the 2nd line setting; cited from earlier work.
The conditions of series [6]: cited from earlier work.
For another series, the target named is CYP3A4 (Homo sapiens, UniProt P08684). The following applies: cited from earlier work.
CYP3A4, sequence (P08684 whole entry): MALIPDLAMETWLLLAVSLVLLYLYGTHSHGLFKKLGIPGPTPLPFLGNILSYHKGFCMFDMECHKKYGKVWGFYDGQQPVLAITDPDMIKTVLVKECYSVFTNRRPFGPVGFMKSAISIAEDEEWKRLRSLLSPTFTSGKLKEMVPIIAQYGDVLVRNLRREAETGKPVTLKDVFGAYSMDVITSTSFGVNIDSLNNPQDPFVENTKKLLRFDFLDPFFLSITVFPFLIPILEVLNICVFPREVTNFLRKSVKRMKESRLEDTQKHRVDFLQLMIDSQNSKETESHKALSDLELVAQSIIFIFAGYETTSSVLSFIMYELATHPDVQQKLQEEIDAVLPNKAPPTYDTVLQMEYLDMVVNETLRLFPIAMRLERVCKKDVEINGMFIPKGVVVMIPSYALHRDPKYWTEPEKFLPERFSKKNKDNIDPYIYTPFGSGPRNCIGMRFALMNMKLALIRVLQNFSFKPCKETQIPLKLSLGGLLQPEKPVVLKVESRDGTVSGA

For the compound `N.N.O=C([O-])C1(C(=O)[O-])CCC1.[Pt+2]` [carboplatin, Carboplatin], the major dose-limiting toxicity result in [1] is “Bone marrow suppression”.

“custirsen: anti-clusterin antisense oligonucleotide CAGCAGCAGAGTCTTCATCAT (Seq. ID No.: 1), phosphorothioate backbone, 2′-O-methoxyethyl at nucleotides 1-4 and 18-21, 5-methylcytosines at 1, 4, 19 (antisense e[5mC]*eA*eG*e[5mC]*dA*dG*dC*dA*dG*dA*dG*dT*dC*dT*dT*dC*dA*eT*e[5mC]*eA*eT; listed as Homo sapiens)”: the overall survival entry in [2] (Arm A (custirsen+paclitaxel/carboplatin) compared to Arm B (paclitaxel/carboplatin)) and in series [3] (Arm A (custirsen+docetaxel) compared to Arm B (docetaxel)) was “prolonged survival” each time. The progression free survival result in [2] (Arm A compared to Arm B) and in series [3] (Arm A compared to Arm B) was “increased” throughout. Moreover, the “proportion of subjects surviving free of progression for at least 14 weeks” value in series [2] (Arm A compared to Arm B) and in series [3] (Arm A compared to Arm B) was “statistically significant higher proportion” throughout. The quality of life entry in series [2] (Arm A compared to Arm B) and in series [3] (Arm A compared to Arm B) was “improves” in each case. Also, the “symptoms of NSCLC (chest pain, pleural effusions, pulmonary edema, dyspnea, hemoptysis)” value in series [2] (Arm A compared to Arm B) and in series [3] (Arm A compared to Arm B) was “occasionally improve” throughout. Moreover, the “survival by baseline serum clusterin” value in series [2] (Arm A patients, baseline clusterin below 71 μg/mL versus above 71 μg/mL) was “tend to survive longer”. The safety and tolerability entry is “safe and well tolerated” in series [2] (custirsen 640 mg IV + paclitaxel/carboplatin (Arm A)); “safe and well tolerated” in series [3] (custirsen 640 mg IV + docetaxel 75 mg/m^2 (Arm A)). Moreover, the “probability of extended survival by baseline and on-treatment clusterin” value in the series on stage IIIB or IV NSCLC (low baseline clusterin (71 μg/mL cutpoint) and low levels during therapy (33 μg/mL average or 30 μg/mL minimum cutpoint)) is “greatest probability of extended survival”. The median survival time in the series with stage IIIB or IV NSCLC (all subjects with baseline clusterin level, clusterin >71 μg/mL (N=26)) was determined as 10.2 months; in the series on stage IIIB or IV NSCLC (all subjects with baseline clusterin level, clusterin ≦71 μg/mL (N=45)) it was 18.8 months; in the series with stage IIIB or IV NSCLC (early discontinuers removed, baseline clusterin >71 μg/mL (N=20)), 12.2 months; in the series with stage IIIB or IV NSCLC (early discontinuers removed, baseline clusterin ≦71 μg/mL (N=35)) it was 28.7 months. For the same compound, the “grade 1-2 constitutional symptoms (e.g., fever and chills), subjects affected” value in [4] is listed as 50-60%. The expression of clusterin result in the series on clusterin is on record as “potently reduces the expression of clusterin”. Besides, the apoptosis result in series [5] is on record as “facilitates apoptosis”. Moreover, in series [5], the “sensitization of cancer cells to chemotherapy” value is recorded as “sensitizes”.

Regarding `CC(=O)O[C@@]12CO[C@@H]1C[C@H](O)[C@@]1(C)C(=O)[C@H](O)C3=C(C)[C@@H](OC(=O)[C@H](O)[C@@H](NC(=O)OC(C)(C)C)c4ccccc4)C[C@@](O)([C@@H](OC(=O)c4ccccc4)[C@H]21)C3(C)C` [Docetaxel], the “median PFS” value with NSCLC was “about 3 months”. In addition, the entries for the “grade 4 neutropenia (<500 cells/mm^3), patients affected” value in series [6] (60 mg/m^2) and in series [6] (100 mg/m^2) were 75% and 85%, respectively. Besides, the “Neutropenia (<2,000 neutrophils/mm3), patients affected” value in series [6] (60-100 mg/m^2) is “virtually all patients”. The “incidence of treatment-related mortality” value in series [6] (abnormal liver function, higher doses, or NSCLC with prior platinum-based chemotherapy, single agent 100 mg/m^2) is recorded as “increased”. Moreover, the “most common side effects” value in series [6] (human, in vivo) is “infections, neutropenia, anemia, febrile neutropenia, hypersensitivity, thrombocytopenia, neuropathy, dysgeusia, dyspnea, constipation, anorexia, nail disorders, fluid retention, asthenia, pain, nausea, diarrhea, vomiting, mucositis, alopecia, skin reactions and myalgia”. Further, the CYP3A4 substrate status result at CYP3A4 is recorded as “CYP3A4 substrate”.
